These results are taken from ChEMBL document CHEMBL6127128, “Discovery of the First-in-Class Dual-Target ROCK/HDAC Inhibitor with Potent Antitumor Efficacy in Vivo That Trigger Antitumor Immunity” (J Med Chem, 2024).

Data set [1] in a line: Oral bioavailability in Balb/c mouse at 50 mg/kg measured for 24 hrs by LC-MS/MS analysis. In kind it is ADME, organism-based. Conditions: in vivo.
Data set [2] is described as follows: Chemical stability of the compound in PBS buffer at pH 7.4 measured after 10 days. In kind it is physicochemical. Conditions: time 10 day, read-out: Stability.
For data set [3], the target named is T1, Protein deacetylase HDAC6 (Homo sapiens, UniProt Q9UBN7).
T1 sequence (Q9UBN7 whole entry): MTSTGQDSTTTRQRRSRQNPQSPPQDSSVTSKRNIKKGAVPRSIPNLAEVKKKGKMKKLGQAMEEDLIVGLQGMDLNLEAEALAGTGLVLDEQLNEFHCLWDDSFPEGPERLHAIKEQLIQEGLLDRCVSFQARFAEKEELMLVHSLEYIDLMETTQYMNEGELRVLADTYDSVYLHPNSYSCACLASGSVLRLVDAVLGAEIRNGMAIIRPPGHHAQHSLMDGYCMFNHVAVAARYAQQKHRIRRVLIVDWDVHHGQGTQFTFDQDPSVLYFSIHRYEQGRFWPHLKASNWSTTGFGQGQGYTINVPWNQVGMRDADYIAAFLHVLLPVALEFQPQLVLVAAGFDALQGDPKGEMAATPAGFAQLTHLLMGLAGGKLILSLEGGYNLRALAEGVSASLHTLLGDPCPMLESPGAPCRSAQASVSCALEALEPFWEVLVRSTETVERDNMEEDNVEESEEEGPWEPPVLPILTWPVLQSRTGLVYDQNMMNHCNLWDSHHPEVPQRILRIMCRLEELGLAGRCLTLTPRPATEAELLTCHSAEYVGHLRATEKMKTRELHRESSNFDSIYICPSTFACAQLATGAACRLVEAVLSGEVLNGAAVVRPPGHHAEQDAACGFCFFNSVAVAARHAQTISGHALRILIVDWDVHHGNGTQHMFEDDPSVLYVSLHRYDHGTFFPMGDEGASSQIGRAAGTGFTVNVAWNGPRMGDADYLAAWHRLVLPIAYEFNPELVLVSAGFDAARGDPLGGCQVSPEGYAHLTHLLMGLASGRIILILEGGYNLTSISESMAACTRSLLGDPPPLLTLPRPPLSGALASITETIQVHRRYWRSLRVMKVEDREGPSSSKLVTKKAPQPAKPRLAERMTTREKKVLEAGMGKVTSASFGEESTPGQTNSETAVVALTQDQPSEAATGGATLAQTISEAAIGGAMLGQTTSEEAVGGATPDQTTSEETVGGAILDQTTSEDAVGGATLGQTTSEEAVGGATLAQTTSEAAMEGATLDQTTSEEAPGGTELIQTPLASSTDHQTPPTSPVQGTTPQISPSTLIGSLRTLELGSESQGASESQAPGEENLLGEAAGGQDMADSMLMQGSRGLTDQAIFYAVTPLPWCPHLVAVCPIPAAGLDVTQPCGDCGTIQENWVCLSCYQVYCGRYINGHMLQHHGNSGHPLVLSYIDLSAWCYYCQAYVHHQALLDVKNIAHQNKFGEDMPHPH
The data set is described as follows: Inhibition of HDAC6 (unknown origin) using Ac-Leu-Gly-Lys(Ac)-AMC as substrate preincubated for 5 mins followed by substrate addition for 30 mins and measured following trypsin addition for 30 mins by fluorescence based analysis.

Data set [4] has as its system 4T1. The experiment in a line: Cytotoxicity against mouse 4T1 cells assessed as reduction in cell viability. Format: functional, cell-based.
The target in data set [5] is T2, Histone deacetylase 7 (Homo sapiens, UniProt Q8WUI4).
T2 sequence (Q8WUI4 whole entry): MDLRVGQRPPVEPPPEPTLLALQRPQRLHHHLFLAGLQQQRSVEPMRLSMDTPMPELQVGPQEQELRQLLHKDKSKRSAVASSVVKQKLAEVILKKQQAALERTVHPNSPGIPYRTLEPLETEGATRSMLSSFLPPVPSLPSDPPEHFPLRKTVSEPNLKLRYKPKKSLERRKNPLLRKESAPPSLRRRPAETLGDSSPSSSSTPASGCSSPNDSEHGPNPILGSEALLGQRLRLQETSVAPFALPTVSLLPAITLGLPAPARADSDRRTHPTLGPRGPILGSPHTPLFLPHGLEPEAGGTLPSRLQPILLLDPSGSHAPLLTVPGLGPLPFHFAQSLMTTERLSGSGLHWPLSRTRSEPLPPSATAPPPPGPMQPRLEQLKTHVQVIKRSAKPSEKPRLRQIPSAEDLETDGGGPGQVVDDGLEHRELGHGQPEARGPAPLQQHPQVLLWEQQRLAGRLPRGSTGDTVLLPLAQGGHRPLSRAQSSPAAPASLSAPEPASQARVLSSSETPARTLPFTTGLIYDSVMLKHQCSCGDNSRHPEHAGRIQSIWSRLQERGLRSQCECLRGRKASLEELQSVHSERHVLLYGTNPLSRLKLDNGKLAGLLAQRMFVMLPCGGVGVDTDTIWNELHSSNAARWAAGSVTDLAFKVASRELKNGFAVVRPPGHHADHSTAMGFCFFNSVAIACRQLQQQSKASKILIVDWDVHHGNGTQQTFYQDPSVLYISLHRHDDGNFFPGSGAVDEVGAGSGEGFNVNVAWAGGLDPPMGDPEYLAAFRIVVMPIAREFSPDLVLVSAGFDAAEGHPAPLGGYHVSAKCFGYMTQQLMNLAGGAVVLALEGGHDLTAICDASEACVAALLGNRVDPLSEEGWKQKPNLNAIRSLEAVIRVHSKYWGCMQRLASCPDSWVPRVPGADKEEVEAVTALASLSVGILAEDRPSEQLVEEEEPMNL
The data set is described as follows: Inhibition of HDAC7 (unknown origin) using Ac-Leu-Gly-Lys(tfa)-AMC as substrate preincubated for 5 mins followed by substrate addition for 30 mins and measured following trypsin addition for 30 mins by fluorescence based analysis.

For data set [6], the system named is MDA-MB-231. The experiment in a line: Induction of immunogenic cell death-associated DAMP release in human MDA-MB-231 cells assessed as decrease in HMGB1 expression level at 1 to 10 uM incubated for 24 hrs by western blot analysis. Format: functional, cell-based. Particulars: dose 1-10 µM. For orientation: Immunoblotting shows a protein as a band on a membrane.

Data set [7] deals with 4T1. The experiment in a line: Antitumor immunity against mouse 4T1 cells implanted in Balb/c mouse assessed as increase in CD3+ T cells in tumor tissue at 50 mg/kg, po administered daily for 15 days by flow cytometry relative to SAHA. Conditions: time 15 day. In kind it is functional. In general terms: In flow cytometry, cells or beads pass a laser one at a time.
Data set [8] is described as follows: Lipophilicity, log D of the compound at pH 7.4. In kind it is physicochemical. Conditions: buffer.
For data set [9], the system named is 4T1. The experiment in a line: Antitumor immunity against mouse 4T1 cells implanted in Balb/c mouse assessed as increase in CD8+ T cells in tumor tissue at 50 mg/kg, po administered daily for 15 days by flow cytometry relative to SAHA. Format: functional. Conditions: time 15 day.
Data set [10] has as its system 4T1. The data set is described as follows: Antitumor immunity against mouse 4T1 cells implanted in Balb/c mouse assessed as increase in CD40+ dendritic cells in tumor tissue at 25 mg/kg, po administered daily for 15 days by immunohistochemistry. In kind it is functional, organism-based. Conditions: time 15.0 day.
The nature of data set [11]: Half-life in Balb/c mouse at 50 mg/kg, po measured for 24 hrs by LC-MS/MS analysis. Format: ADME, organism-based. Particulars: in vivo.
The subject of data set [12] is 4T1. The experiment in a line: Antitumor immunity against mouse 4T1 cells implanted in Balb/c mouse assessed as increase in CD86+ dendritic cells in tumor tissue at 50 mg/kg, po administered daily for 15 days by immunohistochemistry relative to SAHA. In kind it is functional. Particulars: time 15 day.

pIC50: −log10 of the molar value. Active and inactive are the calls of the source. The rule behind the calls is not given here. A value given as a limit tells only on which side of the number the result lay.

The bioavailability is the share of a dose that reaches the circulation, judged against a reference dose that is usually intravenous. Low readings indicate poor availability, high ones good availability. The pIC50 is the IC50 on a negative log10 scale, so that one unit is a factor of ten. What is called logD is the decadic logarithm of the distribution of all forms, ionised or not, between an organic phase and buffer at a given pH. Low values mean lower lipophilicity, high ones higher lipophilicity. The term half-life denotes the time in which the quantity being followed falls by half. Low readings indicate fast loss, high ones slow loss. In turn, `O=C(CCCCCCNC(=O)c1cc2cc(-c3cn[nH]c3)ccc2s1)NO` yielded a bioavailability in data set [1] of 0.13%. The remaining at 240 h in data set [2] turned out to be 98.5%. The pIC50 was 9.39 in data set [3], 6.14 in [4] and below 5.00 in data set [5]. Also, the result in data set [6] and in data set [10] was Active. Further, the “fold change (FC)” value in data set [7] is 1.36; in data set [9] it was 1.21; in [12], 1.82. Also, the logD in [8] worked out at 3.29. The half-life in [11] was 12.2 h.
